This note sets out measurements from patent publication US8716281B2, “Pyrimidine compounds that inhibit anaplastic lymphoma kinase” (Amgen Inc., priority 2010, dated 2014).

For this experiment, the target named is T1, wild-type human ALK cytoplasmic domain (amino acids 1058-1620) (Homo sapiens, UniProt Q9UM73).
T1 construct: The cytoplasmic domain (amino acids 1058-1620) of wild-type human ALK; GST (N); made in house; host or cells: SF9 insect cells
T1 sequence (Q9UM73 1058-1620): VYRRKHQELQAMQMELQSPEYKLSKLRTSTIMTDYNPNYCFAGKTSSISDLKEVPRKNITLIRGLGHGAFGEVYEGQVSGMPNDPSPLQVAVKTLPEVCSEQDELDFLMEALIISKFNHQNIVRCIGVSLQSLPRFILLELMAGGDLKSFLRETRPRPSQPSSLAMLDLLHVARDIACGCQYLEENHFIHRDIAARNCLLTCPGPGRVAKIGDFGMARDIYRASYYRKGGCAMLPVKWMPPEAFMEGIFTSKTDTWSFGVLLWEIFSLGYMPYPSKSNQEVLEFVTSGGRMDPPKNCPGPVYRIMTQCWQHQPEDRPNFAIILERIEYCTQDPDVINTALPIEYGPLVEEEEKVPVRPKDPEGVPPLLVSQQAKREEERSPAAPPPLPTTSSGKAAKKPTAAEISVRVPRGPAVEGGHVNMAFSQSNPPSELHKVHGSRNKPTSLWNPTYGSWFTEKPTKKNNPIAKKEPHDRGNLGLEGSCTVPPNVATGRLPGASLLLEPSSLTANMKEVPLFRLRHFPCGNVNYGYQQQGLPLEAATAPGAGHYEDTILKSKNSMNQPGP
The experiment can be described thus: ALK Inhibition in Enzyme Assay (Lance TR-FRET). The format is biochemical. The settings on record: 2 nM enzyme, ATP at 40 μM (Km apparent), 90 minutes, mean of three replicates; read-out: ALK IC50. An outline of the steps:
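TR-FRET read-out (Eu-W1024 PT66 anti-phosphotyrosine plus streptavidin-allophycocyanin, 320 nm excitation) quantified biotinylated peptide phosphorylation by the purified kinase. Reaction ran 90 minutes at room temperature before quenching with 20 mM EDTA in Tris pH 7.5 buffer with NaCl, BSA and Tween-20.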
(In general: In TR-FRET formats the signal depends on donor and acceptor labels being close together.)
As usually defined, the IC50 is the midpoint of a concentration-inhibition curve. In the case of `Cc1ccc(CNC(=O)[C@H]2CCCN(c3ccnc(Nc4cc(C5CCN(C(=O)OC(C)(C)C)CC5)[nH]n4)n3)C2)cc1` [Example 144, tert-butyl 4-(3-((4-((3S)-3-((4-methylbenzyl)carbamoyl)-1-piperidinyl)-2-pyrimidinyl)amino)-1H-pyrazol-5-yl)-1-piperidinecarboxylate], the 50% inhibitory concentration (IC50) fell in the range of 1000 to 5000 nM.

Take `Cc1ccc(CNC(=O)[C@H]2CCCN(c3ccnc(Nc4cc(-c5ccc(C)cc5)[nH]n4)n3)C2)cc1` [Example 145, (3S)-N-(4-methylbenzyl)-1-(2-((5-(4-methylphenyl)-1H-pyrazol-3-yl)amino)-4-pyrimidinyl)-3-piperidinecarboxamide]: the concentration for half-maximal inhibition (IC50) lay within 5000 to 10000 nM.

As for `COc1cc(Nc2nccc(N3CCC[C@H](C(=O)NCc4ccc(C)cc4)C3)n2)cc2c1OCCO2` [Example 146, (3S)-1-(2-((8-methoxy-2,3-dihydro-1,4-benzodioxin-6-yl)amino)-4-pyrimidinyl)-N-(4-methylbenzyl)-3-piperidinecarboxamide], the IC50 is 100 to 1000 nM.

In the case of `Cc1ccc(CNC(=O)[C@H]2CCCN(c3ccnc(Nc4ccc(=O)n(C)c4)n3)C2)cc1` [Example 147, (3S)-N-(4-methylbenzyl)-1-(2-((1-methyl-6-oxo-1,6-dihydro-3-pyridinyl)amino)-4-pyrimidinyl)-3-piperidinecarboxamide], the 50% inhibitory concentration (IC50) was in the range of 5000 to 10000 nM.

In the case of `CCOc1cccc(Nc2nccc(N3CCC[C@H](C(=O)NCc4ccc(C)cc4)C3)n2)c1` [Example 148, (3S)-1-(2-((3-ethoxyphenyl)amino)-4-pyrimidinyl)-N-(4-methylbenzyl)-3-piperidinecarboxamide], the concentration for half-maximal inhibition (IC50) lay within 100 to 1000 nM.

Take `Cc1ccc(CNC(=O)[C@H]2CCCN(c3ccnc(Nc4cccc(Oc5ccccc5)c4)n3)C2)cc1` [Example 149, (3S)-N-(4-methylbenzyl)-1-(2-((3-phenoxyphenyl)amino)-4-pyrimidinyl)-3-piperidinecarboxamide]: the IC50 lay in the range of 100 to 1000 nM.

On to `Cc1ccc(CNC(=O)[C@H]2CCCN(c3ccnc(Nc4cccc(C(=O)c5ccccc5)c4)n3)C2)cc1` [Example 150, (3S)-N-(4-methylbenzyl)-1-(2-((3-(phenylcarbonyl)phenyl)amino)-4-pyrimidinyl)-3-piperidinecarboxamide], for which the IC50 was 100 to 1000 nM.

`Cc1ccc(CNC(=O)[C@H]2CCCN(c3ccnc(Nc4cccc(S(N)(=O)=O)c4)n3)C2)cc1` [Example 151, (3S)-N-(4-methylbenzyl)-1-(2-((3-sulfamoylphenyl)amino)-4-pyrimidinyl)-3-piperidinecarboxamide]: the IC50 lay in the range of 100 to 1000 nM.

In the case of `Cc1ccc(CNC(=O)[C@H]2CCCN(c3ccnc(Nc4cccc(Cc5ccccc5)c4)n3)C2)cc1` [Example 152, (3S)-1-(2-((3-benzylphenyl)amino)-4-pyrimidinyl)-N-(4-methylbenzyl)-3-piperidinecarboxamide], the IC50 was 100 to 1000 nM.

On to `Cc1ccc(CNC(=O)[C@H]2CCCN(c3ccnc(Nc4cc(C(C)(C)C)cc(C(C)(C)C)c4)n3)C2)cc1` [Example 153, (3S)-1-(2-((3,5-di-tert-butylphenyl)amino)-4-pyrimidinyl)-N-(4-methylbenzyl)-3-piperidinecarboxamide], for which the IC50 was 1000 to 5000 nM.

For the molecule `Cc1ccc(CNC(=O)[C@H]2CCCN(c3ccnc(Nc4ccc(C(=O)N(C)C)cc4)n3)C2)cc1` [Example 154, (3S)-1-(2-((4-(dimethylcarbamoyl)phenyl)amino)-4-pyrimidinyl)-N-(4-methylbenzyl)-3-piperidinecarboxamide], the half-maximal inhibitory concentration (IC50) lay in the range of 1000 to 5000 nM.

For `Cc1ccc(CNC(=O)[C@H]2CCCN(c3ccnc(Nc4cc(C)cc(C)c4)n3)C2)cc1` [Example 155, (3S)-1-(2-((3,5-dimethylphenyl)amino)-4-pyrimidinyl)-N-(4-methylbenzyl)-3-piperidinecarboxamide], the concentration for half-maximal inhibition (IC50) lay in the range of 1000 to 5000 nM.

On to `CSc1cccc(Nc2nccc(N3CCC[C@H](C(=O)NCc4ccc(C)cc4)C3)n2)c1` [Example 157, (3S)-N-(4-methylbenzyl)-1-(2-((3-(methylsulfanyl)phenyl)amino)-4-pyrimidinyl)-3-piperidinecarboxamide], for which the IC50 lay within 100 to 1000 nM.

With `Cc1ccc(CNC(=O)[C@H]2CCCN(c3ccnc(Nc4cccc(C)c4)n3)C2)cc1` [Example 158, (3S)-N-(4-methylbenzyl)-1-(2-((3-methylphenyl)amino)-4-pyrimidinyl)-3-piperidinecarboxamide], the concentration for half-maximal inhibition (IC50) lay in the range of 100 to 1000 nM.

For `Cc1ccc(CNC(=O)[C@H]2CCCN(c3ccnc(Nc4cc(F)cc(F)c4)n3)C2)cc1` [Example 159, (3S)-1-(2-((3,5-difluorophenyl)amino)-4-pyrimidinyl)-N-(4-methylbenzyl)-3-piperidinecarboxamide], the IC50 was in the range of 1000 to 5000 nM.

Take `Cc1ccc(CNC(=O)[C@H]2CCCN(c3ccnc(Nc4cccc(OC(C)C)c4)n3)C2)cc1` [Example 160, (3S)-N-(4-methylbenzyl)-1-(2-((3-(1-methylethoxy)phenyl)amino)-4-pyrimidinyl)-3-piperidinecarboxamide]: the concentration for half-maximal inhibition (IC50) was 100 to 1000 nM.

As to `Cc1ccc(CNC(=O)[C@H]2CCCN(c3ccnc(Nc4ccc(N5CCN(C)CC5)cc4)n3)C2)cc1` [Example 161, (3S)-N-(4-methylbenzyl)-1-(2-((4-(4-methyl-1-piperazinyl)phenyl)ami-no)-4-pyrimidinyl)-3-piperidinecarboxamide], the half-inhibitory concentration (IC50) fell in the range of 100 to 1000 nM.

As for `Cc1ccc(CNC(=O)[C@H]2CCCN(c3ccnc(Nc4cc(C(F)(F)F)cc(C(F)(F)F)c4)n3)C2)cc1` [Example 163, (3S)-1-(2-((3,5-bis(trifluoromethyl)phenyl)amino)-4-pyrimidinyl)-N-(4-methylbenzyl)-3-piperidinecarboxamide], the half-maximal inhibitory concentration (IC50) lay in the range of 100 to 1000 nM.

With `Cc1ccc(CNC(=O)[C@H]2CCCN(c3ccnc(Nc4cccc(OC(F)(F)F)c4)n3)C2)cc1` [Example 164, (3S)-N-(4-methylbenzyl)-1-(2-((3-(trifluoromethoxy)phenyl)amino)-4-pyrimidinyl)-3-piperidinecarboxamide], the 50% inhibitory concentration (IC50) fell in the range of 1000 to 5000 nM.

With `CC(=O)Nc1ccc(Nc2nccc(N3CCC[C@H](C(=O)NCc4ccc(C)cc4)C3)n2)cc1` [Example 165, (3S)-1-(2-((4-(acetylamino)phenyl)amino)-4-pyrimidinyl)-N-(4-methylbenzyl)-3-piperidinecarboxamide], the concentration for half-maximal inhibition (IC50) was 1000 to 5000 nM.

Consider `Cc1ccc(CNC(=O)[C@H]2CCCN(c3ccnc(Nc4ccc(C#N)cc4)n3)C2)cc1` [Example 166, (3S)-1-(2-((4-cyanophenyl)amino)-4-pyrimidinyl)-N-(4-methylbenzyl)-3-piperidinecarboxamide], for which the half-inhibitory concentration (IC50) lay within 1000 to 5000 nM.

Consider `Cc1ccc(CNC(=O)[C@H]2CCCN(c3ccnc(Nc4cccc(C(C)O)c4)n3)C2)cc1` (stereo partly drawn) [Example 167, (3S)-1-(2-((3-(1-hydroxyethyl)phenyl)amino)-4-pyrimidinyl)-N-(4-methylbenzyl)-3-piperidinecarboxamide], for which the IC50 lay within 100 to 1000 nM.

On to `CNC(=O)c1cccc(Nc2nccc(N3CCC[C@H](C(=O)NCc4ccc(C)cc4)C3)n2)c1` [Example 168, (3S)-N-(4-methylbenzyl)-1-(2-((3-(methylcarbamoyl)phenyl)amino)-4-pyrimidinyl)-3-piperidinecarboxamide], for which the half-maximal inhibitory concentration (IC50) is 1000 to 5000 nM.

Regarding `COc1cc(F)cc(Nc2nccc(N3CCC[C@H](C(=O)NCc4ccc(C)cc4)C3)n2)c1` [Example 169, (3S)-1-(2-((3-fluoro-5-methoxyphenyl)amino)-4-pyrimidinyl)-N-(4-methylbenzyl)-3-piperidinecarboxamide], the IC50 fell in the range of 100 to 1000 nM.
